Consider 25 molecules from PubChem BioAssay (NCI).

SMILES strings stand for the structures.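 1) Cells in 96-well plates. 2) Compound, 48 h, 5 concentrations. 3) Linear interpolation between surrounding doses. 4) Unreached endpoint = highest concentration. GI50: concentration for 50% inhibition of growth. At the TGI there is no net growth.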

One experiment relates to ACHN renal. The experiment is described as follows: NCI tumour cell line growth inhibition, 48 h.
`C=C1C(=O)OC2CC3(C)C=CC(=O)C(=C)C3CC12` (stereo not given) returned a TGI of 3.35 µM.

Take `CCOP(=O)(OCC)C1CCCCOC1=O` (stereo not given): the TGI was > 100 µM.

Another experiment concerns NCI-H226 lung. The experiment can be described thus: NCI tumour cell line growth inhibition, 48 h.
Turning to `Nc1cc(=O)[nH]c(SC2=NC(N)CC(O)C2)n1` (stereo not given), the TGI is > 100 µM.

In the case of `CC(=O)[O][Pb]([O]C(C)=O)([c]1ccccc1)[c]1ccccc1`, the GI50 is 64.2 µM and the TGI is > 100 µM.

For the molecule `CCC[CH2][Sn]([CH2]CCC)([O]C(C)=O)[O]C(C)=O`, the GI50 was 1.53 µM and the TGI came to 3.01 µM.

For `O=C(O)[C@@H]1C2CC([C@@H]1C(=O)O)[C@H](N1C(=O)CCC1=O)[C@@H]2Br` (stereo not given in full), the TGI was > 100 µM.

With `COC(=O)CCC(=O)N1Cc2cc(C)ccc2N(C(=O)CCC(=O)OC)Cc2cc(C)ccc21`, the TGI was > 100 µM.

Turning to `CCOC(=O)c1c2c(n(CC(C)C)c1C)-c1nc[nH]c1C(=O)C2=O`, the GI50 is 15 µM and the TGI stood at 28.5 µM.

Regarding `CS(=O)(=O)CC1=Nc2nnc(CCCCCCCc3nnc4n3C(=O)C(CS(C)(=O)=O)=N4)n2C1=O`, the TGI was > 100 µM.

On to `COc1cc2c(cc1OC)-c1ccc3cc4c(cc3c1N(CCN1CCCC1)C2)OCO4`, for which the GI50 is 0.876 µM and the TGI stood at 3.16 µM.

In turn, `O=C(NCCCCCCNC(=O)c1cccc2ccccc12)c1cccc2ccccc12` yielded a TGI of 53 µM.

Regarding `COC12C=CC(CC1)c1c(O)ccc(O)c12` (stereo not given), the TGI was > 100 µM.

For the molecule `CC1=C2CCCC2C/C(=N/Nc2ccc([N+](=O)[O-])cc2[N+](=O)[O-])CC1` (stereo not given), the TGI is > 100 µM.

Turning to `CC1CC2C(=O)NC(=O)C2c2[nH]c3ccccc3c21` (stereo not given), the TGI was > 100 µM.

Turning to `CC12CCC(=O)C(O1)C1C(=O)c3cc4ccccc4cc3C(=O)C12` (stereo not given), the GI50 is 14.4 µM and the TGI was determined as 41.9 µM.

As to `CC1(C)CCC2(C(=O)OC3OC(CO)C(O)C(O)C3O)CC[C@]3(C)C(=CCC4C5(C)CC[C@H](OC6OC(C(=O)O)C(O)C(O)C6O)C(C)(C)C5CCC43C)C2C1` (stereo not given in full), the GI50 was 1.49 µM and the TGI was determined as 6.31 µM.

As to `Cc1ccc2c(c1)C1(C)OC(CC(N)C1O)O2` (stereo not given), the TGI was > 100 µM.

`COC(=O)[C@@H]1CSC(=S)N1C(=O)C[C@H]1CC=CC[C@H]1CC(=O)Sc1ccccc1` yielded a TGI of 47.2 µM.

As for `CC1(Sc2ccccc2)CN(Cc2ccccc2)C1=O` (stereo not given), the TGI is > 100 µM.

Molecule `C=C1C(=O)OC2CC3(C)C=CC(=O)C(=C)C3CC12` (stereo not given) registered a TGI of 25.8 µM.

In a further experiment the test system is K-562 leukemia. The experiment can be described thus: NCI tumour cell line growth inhibition, 48 h.
As for `CN(C)c1ccc2c(NCCCCCCNc3ccnc4cc(N(C)C)ccc34)ccnc2c1`, the TGI is > 100 µM.

Turning to `Nc1cc(=O)[nH]c(SC2=NC(N)CC(O)C2)n1` (stereo not given), the TGI is > 100 µM.

`CC(=O)[O][Pb]([O]C(C)=O)([c]1ccccc1)[c]1ccccc1`: the GI50 was > 25.9 µM and the TGI is > 100 µM.

Consider `CN1CCc2c1nc(-c1ccccc1)c1c2N(C)CC1`, for which the TGI was > 100 µM.

As for `CCC[CH2][Sn]([CH2]CCC)([O]C(C)=O)[O]C(C)=O`, the GI50 is 0.299 µM and the TGI is 2.59 µM.

Regarding `O=C(O)[C@@H]1C2CC([C@@H]1C(=O)O)[C@H](N1C(=O)CCC1=O)[C@@H]2Br` (stereo not given in full), the TGI was > 100 µM.

As for `COC(=O)CCC(=O)N1Cc2cc(C)ccc2N(C(=O)CCC(=O)OC)Cc2cc(C)ccc21`, the TGI is > 100 µM.

Take `C=C1C(=O)O[C@H]2C[C@@H](C)[C@@H]3CC(=O)OC[C@@]3(C)CC12` (stereo not given in full): the TGI came out at 68.5 µM.

For `CCOC(=O)c1c2c(n(CC(C)C)c1C)-c1nc[nH]c1C(=O)C2=O`, the GI50 was 6.74 µM and the TGI was determined as 20.1 µM.

Regarding `CS(=O)(=O)CC1=Nc2nnc(CCCCCCCc3nnc4n3C(=O)C(CS(C)(=O)=O)=N4)n2C1=O`, the TGI is > 100 µM.

As to `COc1ccccc1[N-]C(C1=C([O-])c2ccccc2C1=O)c1ccccc1.COc1ccccc1[N-]C(C1=C([O-])c2ccccc2C1=O)c1ccccc1.[Cu+2]` (stereo not given), the GI50 was 3.18 µM and the TGI was > 100 µM.

`COc1cc2c(cc1OC)-c1ccc3cc4c(cc3c1N(CCN1CCCC1)C2)OCO4`: the GI50 is 0.291 µM and the TGI was found to be 1.65 µM.

As for `O=C(NCCCCCCNC(=O)c1cccc2ccccc12)c1cccc2ccccc12`, the TGI is > 100 µM.

Take `COC12C=CC(CC1)c1c(O)ccc(O)c12` (stereo not given): the TGI stood at 61.8 µM.

In the case of `CC1=C2CCCC2C/C(=N/Nc2ccc([N+](=O)[O-])cc2[N+](=O)[O-])CC1` (stereo not given), the TGI was > 100 µM.

For the molecule `COc1cc2cc(Oc3ccc(NC(=O)Nc4ccc(Cl)c(C(F)(F)F)c4)cc3)c(C)nc2cc1OCCN1CCCCC1`, the GI50 is 0.547 µM and the TGI came out at 2.33 µM.

As for `C=CCC(N[C@H](CO)C(C)C)c1cn(C(=O)OCC)c2ccccc12` (stereo not given in full), the GI50 is 11.1 µM and the TGI stood at 25.8 µM.

Regarding `CC1CC2C(=O)NC(=O)C2c2[nH]c3ccccc3c21` (stereo not given), the TGI is > 100 µM.

Consider `CC12CCC(=O)C(O1)C1C(=O)c3cc4ccccc4cc3C(=O)C12` (stereo not given), for which the GI50 is 16 µM and the TGI was 41.5 µM.

With `CC1(C)CCC2(C(=O)OC3OC(CO)C(O)C(O)C3O)CC[C@]3(C)C(=CCC4C5(C)CC[C@H](OC6OC(C(=O)O)C(O)C(O)C6O)C(C)(C)C5CCC43C)C2C1` (stereo not given in full), the GI50 is 1.58 µM and the TGI was > 50 µM.

As for `Cc1ccc2c(c1)C1(C)OC(CC(N)C1O)O2` (stereo not given), the TGI was > 100 µM.

`COC(=O)[C@@H]1CSC(=S)N1C(=O)C[C@H]1CC=CC[C@H]1CC(=O)Sc1ccccc1`: the TGI was 38.9 µM.

Regarding `CC1(Sc2ccccc2)CN(Cc2ccccc2)C1=O` (stereo not given), the TGI was > 100 µM.

For the molecule `C=C1C(=O)OC2CC3(C)C=CC(=O)C(=C)C3CC12` (stereo not given), the TGI is > 100 µM.

As to `CCOP(=O)(OCC)C1CCCCOC1=O` (stereo not given), the TGI was > 100 µM.

The next experiment has as its system 786-0 renal. The experiment is described as follows: NCI tumour cell line growth inhibition, 48 h.
`CN(C)c1ccc2c(NCCCCCCNc3ccnc4cc(N(C)C)ccc34)ccnc2c1` displayed a TGI of 45.3 µM.

Consider `Nc1cc(=O)[nH]c(SC2=NC(N)CC(O)C2)n1` (stereo not given), for which the TGI was > 100 µM.

`CC(=O)[O][Pb]([O]C(C)=O)([c]1ccccc1)[c]1ccccc1`: the GI50 is 3.53 µM and the TGI is > 100 µM.

Turning to `CN1CCc2c1nc(-c1ccccc1)c1c2N(C)CC1`, the TGI was > 100 µM.
